# From patent US10077436B2, “Beta-glucosidase enzymes for increased biomass saccharification” (Edeniq, Inc., priority 2013, dated 2018)
# Target: T1, Aspergillus niger beta-glucosidase (CAB75696.1, SEQ ID NO:2) improved variant yEdQ885-BG (Aspergillus niger, UniProt Q9P8F4, Y363C/Y375F/Y610F)
# T1 construct: strain yEdQ885, BG acid/base mutant #8
# T1 sequence (Q9P8F4 20-860 Y363C/Y375F/Y610F): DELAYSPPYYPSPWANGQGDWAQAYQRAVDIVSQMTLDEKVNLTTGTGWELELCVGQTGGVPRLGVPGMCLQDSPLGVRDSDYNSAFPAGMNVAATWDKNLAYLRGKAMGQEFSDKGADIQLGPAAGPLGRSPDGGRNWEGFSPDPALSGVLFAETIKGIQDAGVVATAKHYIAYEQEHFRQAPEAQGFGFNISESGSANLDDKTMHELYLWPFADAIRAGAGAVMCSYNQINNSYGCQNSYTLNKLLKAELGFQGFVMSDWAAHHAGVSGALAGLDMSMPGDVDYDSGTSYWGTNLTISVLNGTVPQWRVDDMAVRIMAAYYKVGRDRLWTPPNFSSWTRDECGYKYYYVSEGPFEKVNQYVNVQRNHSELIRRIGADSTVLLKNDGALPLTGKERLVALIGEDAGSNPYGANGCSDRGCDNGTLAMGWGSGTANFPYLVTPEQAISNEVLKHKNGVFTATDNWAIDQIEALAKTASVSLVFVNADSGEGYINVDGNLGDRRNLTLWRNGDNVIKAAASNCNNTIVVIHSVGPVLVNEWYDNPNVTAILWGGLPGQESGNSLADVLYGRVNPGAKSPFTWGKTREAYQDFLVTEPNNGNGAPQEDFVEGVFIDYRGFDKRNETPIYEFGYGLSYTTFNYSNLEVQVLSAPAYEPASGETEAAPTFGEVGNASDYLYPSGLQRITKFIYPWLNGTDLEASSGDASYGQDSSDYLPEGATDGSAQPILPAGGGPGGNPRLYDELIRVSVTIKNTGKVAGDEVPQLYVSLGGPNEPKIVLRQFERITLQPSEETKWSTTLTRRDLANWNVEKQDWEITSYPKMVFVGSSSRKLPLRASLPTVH
# Experiment: BG kinetics, cellobiose hydrolysis assay (HPLC) with glucose as competitive inhibitor, yEdQ885-BG
# Format: biochemical
# Text: The beta-glucosidase (BG) gene from Aspergillus niger (Accession #CAB75696.1) was integrated into the TR3 yeast background at the T4U3 genomic site.
# High resolution enzyme assays and kinetic testing comparing the beta-glucosidases described herein and commercial enzyme preparations were pursued to more clearly quantify differences in mutant BG enzymes compared to the wild type BG enzyme. Based on data presented herein, BG mutant YEdQ885 was selected for further analysis and compared to the BG activity present in commercial preparations of SP188 (Novozymes) and Accellerase® BG (DuPont) as well as wild type BG.
# The kinetic properties of beta glucosidase are important for cellulosic hydrolysis, since in commercial situations a wide range of substrate concentrations and different product inhibition conditions will be encountered. In this example, a Michaelis-Menten kinetics model was used to describe BG kinetics. To determine these kinetic properties, BG activity assays using standard substrates pNPG and cellobiose were employed. yEdQ745-BG (wild type) and yEdQ885-BG (improved), were compared with two commercial BGs, A-BG (Accellerase®) BG from Dupont) and S-BG (Novozymes SP188 from Sigma). […]
smiles,measurement,setting,value
OC[C@H]1OC(O)[C@H](O)[C@@H](O)[C@@H]1O (some centres unmarked) [glucose],Ki,,1110 ± 190 µM
same,Km/Ki,"inhibitor influence, Km for cellobiose / Ki for glucose, pH 4.8, 50° C.",1.31
